Assay results reported in ChEMBL document CHEMBL1154827, “Acetylcholinesterase inhibitory pyridine alkaloids of the leaves of Senna multijuga” (J Nat Prod, 2010).

What was measured:
[1] = molecular target: Acetylcholinesterase (Electrophorus electricus) (UniProt O42275); assay: Inhibition of electric eel AChE assessed as purple zones of inhibition after 20 mins by TLC bioautography
[2] = molecular target: Acetylcholinesterase (Electrophorus electricus) (UniProt O42275); assay: Inhibition of electric eel AChE at 350 […] by microplate assay

Acetylcholinesterase (Electrophorus electricus), sequence (O42275 24-633 limits assumed): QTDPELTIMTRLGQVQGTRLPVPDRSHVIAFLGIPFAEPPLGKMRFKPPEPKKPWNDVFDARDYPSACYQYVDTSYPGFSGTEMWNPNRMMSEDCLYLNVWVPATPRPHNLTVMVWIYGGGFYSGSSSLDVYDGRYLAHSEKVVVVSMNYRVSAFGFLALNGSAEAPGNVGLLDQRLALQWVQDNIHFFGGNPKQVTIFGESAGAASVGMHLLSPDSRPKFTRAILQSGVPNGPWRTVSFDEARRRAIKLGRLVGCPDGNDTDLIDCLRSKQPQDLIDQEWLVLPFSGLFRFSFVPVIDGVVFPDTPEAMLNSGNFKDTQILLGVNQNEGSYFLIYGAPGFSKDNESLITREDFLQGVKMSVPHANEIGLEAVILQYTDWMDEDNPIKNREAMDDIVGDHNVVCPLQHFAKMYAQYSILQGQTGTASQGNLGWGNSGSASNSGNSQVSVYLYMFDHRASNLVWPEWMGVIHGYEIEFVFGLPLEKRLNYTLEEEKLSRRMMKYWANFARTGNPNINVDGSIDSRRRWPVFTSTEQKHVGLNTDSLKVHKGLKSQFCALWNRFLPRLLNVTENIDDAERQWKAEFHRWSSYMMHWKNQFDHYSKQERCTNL

| SMILES | INH [1] | inhibition [2] |
| --- | --- | --- |
| C[C@@H]1O[C@@H](OC[C@H]2O[C@@H](Oc3c(-c4ccc(O)c(O)c4)oc4cc(O)cc(O)c4c3=O)[C@H](O)[C@@H](O)[C@@H]2O)[C@H](O)[C@H](O)[C@H]1O | > 100 µg | – |
| Cc1nc(CCCCCCC(=O)CCCCCO)ccc1O | 0.18 µg | 30% |
| CNC(=O)Oc1ccc2c(c1)[C@]1(C)CCN(C)[C@@H]1N2C | 0.05 µg | 87% |
| CCCCCC(=O)CCCCCCc1ccc(O)c(C)n1 | 0.75 µg | 13% |
